The source of these data is paper PMC10969504 (2024).

The subject of the experiment is ENR-Apt 6 (DNA, aptamer) GCGGCTGCTTACGGATAGAAGGCGGATGGAGAAATGAACCGGGGTGGTCCGTTGTCCATCCGTAAAGCCCAAGTC
Nature of the experiment: graphene oxide fluorescence quenching/recovery, aptamer titrated. Conditions: aptamer 25-200 nM in ultrapure water; 20 μg/mL GO; 250 μM ENR solution added (1:1:1 v/v); apparent.

For `CCN1CCN(c2cc3c(cc2F)c(=O)c(C(=O)O)cn3C2CC2)CC1`, the Kd amounted to 0.03508 µM.
